Test results published in US20170190671A1, “BIS(ARYL)CATECHOL DERIVATIVES AS HERBICIDES” (E I DU PONT DE NEMOURS AND COMPANY, priority 2014, published 2017).

Columns and labels:
Assay in all cases: Test C preemergence
Format in all cases: in vivo
[1] = test system: Italian ryegrass (Lolium multiflorum); details: Lolium multiflorum, pre-emergence, 336 h, preemergence, scale 0 to 100, read-out: Plant response rating, Ryegrass, Italian
Method in brief: (§1)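 Visual ratings (0 none to 100 complete control) were made 13 to 15 days after treatment, relative to controls. Test chemicals, formulated in a non-phytotoxic solvent mixture with surfactant, were applied in the greenhouse preemergence to seeded loam-sand soil or postemergence to plants 2 to 18 cm tall.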

[2] = test system: giant foxtail (Setaria faberii); details: Setaria faberi, pre-emergence, 336 h, preemergence, scale 0 to 100, read-out: Plant response rating, Foxtail, Giant
Method in brief: as §1

[3] = test system: ragweed (common ragweed, Ambrosia elatior); details: Ambrosia artemisiifolia, pre-emergence, 336 h, preemergence, scale 0 to 100, read-out: Plant response rating, Ragweed
Method in brief: as §1

[4] = test system: barnyardgrass (Echinochloa crus-galli); details: Echinochloa crus-galli, pre-emergence, preemergence, scale 0 to 100, read-out: Plant response rating, Barnyardgrass
Method in brief: as §1

[5] = test system: johnsongrass (Sorghum halepense); details: Sorghum halepense, pre-emergence, 336 h, preemergence, scale 0 to 100, read-out: Plant response rating, Johnsongrass
Method in brief: as §1

[6] = test system: lambsquarters (Chenopodium album); details: Chenopodium album, pre-emergence, 336 h, preemergence, scale 0 to 100, read-out: Plant response rating, Lambsquarters
Method in brief: as §1

[7] = test system: velvetleaf (Abutilon theophrasti); details: Abutilon theophrasti, pre-emergence, preemergence, scale 0 to 100, read-out: Plant response rating, Velvetleaf
Method in brief: as §1

[8] = test system: galium (catchweed bedstraw, Galium aparine); details: Galium, pre-emergence, 336 h, preemergence, scale 0 to 100, read-out: Plant response rating, Galium
Method in brief: as §1

[9] = test system: waterhemp (common waterhemp, Amaranthus rudis); details: Amaranthus tuberculatus, pre-emergence, preemergence, scale 0 to 100, read-out: Plant response rating, Waterhemp
Method in brief: as §1

[10] = test system: winter wheat (Triticum aestivum); details: Triticum aestivum, pre-emergence, 336 h, preemergence, scale 0 to 100, read-out: Plant response rating, Wheat
Method in brief: as §1

[11] = test system: morningglory (Ipomoea coccinea); details: Ipomoea, pre-emergence, 336 h, preemergence, scale 0 to 100, read-out: Plant response rating, Morningglory
Method in brief: as §1

corn (Zea mays) = details: Zea mays, pre-emergence, 336 h, preemergence, scale 0 to 100
Method in brief: as §1

[12] = test system: large (Lg) crabgrass (Digitaria sanguinalis); details: Digitaria sanguinalis, pre-emergence, 336 h, preemergence, scale 0 to 100, read-out: Plant response rating, Crabgrass, Large
Method in brief: as §1

soybean (Glycine max) = details: Glycine max, pre-emergence, preemergence, scale 0 to 100, read-out: Plant response rating, Soybean
Method in brief: as §1

[13] = test system: pigweed (Amaranthus retroflexus); details: Amaranthus retroflexus, pre-emergence, 336 h, preemergence, scale 0 to 100, read-out: Plant response rating, Pigweed
Method in brief: as §1

Fc1cnc(Oc2c(F)cccc2Oc2ncc(Cl)cn2)nc1 [Compound 23]
45%: pest or weed control at 31 g/ha ([11]; 31 g ai/ha)
100%: pest or weed control at 125 g/ha ([2]; 125 g ai/ha) | pest or weed control at 62 g/ha ([3]; 62 g ai/ha) | pest or weed control at 125 g/ha ([3]; 125 g ai/ha) | pest or weed control at 250 g/ha ([3]; 250 g ai/ha) | pest or weed control at 62 g/ha ([4]; 62 g ai/ha) | pest or weed control at 125 g/ha ([4]; 125 g ai/ha) | pest or weed control at 250 g/ha ([4]; 250 g ai/ha) | pest or weed control at 31 g/ha ([6]; 31 g ai/ha) | pest or weed control at 62 g/ha ([6]; 62 g ai/ha) | pest or weed control at 125 g/ha ([6]; 125 g ai/ha) | pest or weed control at 31 g/ha ([7]; 31 g ai/ha) | pest or weed control at 62 g/ha ([7]; 62 g ai/ha) | pest or weed control at 125 g/ha ([7]; 125 g ai/ha) | pest or weed control at 250 g/ha ([7]; 250 g ai/ha) | pest or weed control at 31 g/ha ([8]; 31 g ai/ha) | pest or weed control at 62 g/ha ([8]; 62 g ai/ha) | pest or weed control at 125 g/ha ([8]; 125 g ai/ha) | pest or weed control at 31 g/ha ([9]; 31 g ai/ha) | pest or weed control at 62 g/ha ([9]; 62 g ai/ha) | pest or weed control at 125 g/ha ([9]; 125 g ai/ha) | pest or weed control at 250 g/ha ([9]; 250 g ai/ha) | pest or weed control at 31 g/ha ([12]; 31 g ai/ha) | pest or weed control at 62 g/ha ([12]; 62 g ai/ha) | pest or weed control at 125 g/ha ([12]; 125 g ai/ha) | pest or weed control at 31 g/ha ([13]; 31 g ai/ha) | pest or weed control at 62 g/ha ([13]; 62 g ai/ha) | pest or weed control at 125 g/ha ([13]; 125 g ai/ha)
50%: pest or weed control at 62 g/ha ([5]; 62 g ai/ha) | plant injury at 125 g/ha ([10]; 125 g ai/ha)
85%: pest or weed control at 125 g/ha ([1]; 125 g ai/ha) | pest or weed control at 31 g/ha ([3]; 31 g ai/ha) | pest or weed control at 62 g/ha ([11]; 62 g ai/ha)
75%: pest or weed control at 62 g/ha ([1]; 62 g ai/ha) | pest or weed control at 31 g/ha ([4]; 31 g ai/ha)
95%: pest or weed control at 31 g/ha ([2]; 31 g ai/ha) | plant injury at 250 g/ha (soybean (Glycine max); 250 g ai/ha)
70%: Corn plant response rating (crop injury, 0 = no effect, 100 = complete kill) at 125 g/ha (corn (Zea mays); 125 g ai/ha)
5%: pest or weed control at 31 g/ha ([1]; 31 g ai/ha) | plant injury at 31 g/ha ([10]; 31 g ai/ha) | Corn plant response rating (crop injury, 0 = no effect, 100 = complete kill) at 31 g/ha (corn (Zea mays); 31 g ai/ha)
80%: plant injury at 62 g/ha (soybean (Glycine max); 62 g ai/ha)
60%: plant injury at 31 g/ha (soybean (Glycine max); 31 g ai/ha)
90%: pest or weed control at 250 g/ha ([1]; 250 g ai/ha) | pest or weed control at 125 g/ha ([5]; 125 g ai/ha) | plant injury at 250 g/ha ([10]; 250 g ai/ha) | plant injury at 125 g/ha (soybean (Glycine max); 125 g ai/ha)
40%: pest or weed control at 31 g/ha ([5]; 31 g ai/ha) | plant injury at 62 g/ha ([10]; 62 g ai/ha)
98%: pest or weed control at 62 g/ha ([2]; 62 g ai/ha) | pest or weed control at 125 g/ha ([11]; 125 g ai/ha)
35%: Corn plant response rating (crop injury, 0 = no effect, 100 = complete kill) at 62 g/ha (corn (Zea mays); 62 g ai/ha)
